From paper PMC3769975 (ChemMedChem, 2012)
Values after ≈ are worked out from the molar mass of the structure shown. Where two headings read alike, the source gives them in different places.

Legend:
[1] = tested on: WSN-Ren luciferase virus (influenza A/WSN/33) in MDCK-HA cells; test: microbe, parasite or virus in culture; assay type: cell-based, influenza A/WSN/33 (H1N1)
[2] = tested on: MDCK-HA cell line
[3] = tested on: panel of 13 kinases; test: Kinase panel inhibition; assay type: biochemical; details: concentrations up to 5 μM
[4] = tested on: WSN-Ren luciferase virus in MDCK-HA cells; assay type: cell-based, influenza A/WSN/33 (H1N1)
[5] = target: recombinant neuraminidase N1 (A/California/04/09) (Influenza A virus (A/California/04/2009(H1N1)), UniProt C3W5S3); test: Fluorescent neuraminidase assay; assay type: biochemical, influenza A/California/04/09; details: serial dilutions from 100 μM to 6.4 nM
[6] = tested on: wild type influenza A/WSN/33 virus in A549 cells; test: qRT-PCR of viral NP mRNA, A549 cells infected with wild type WSN virus; assay type: cell-based, influenza A/WSN/33 (H1N1); details: 10 μM, 1 μM and 0.1 μM
[7] = 1D proton NMR solubility experiment; assay type: physicochemical; details: PBS with 2% DMSO, aqueous buffer, kinetic from dmso stock

| Structure (SMILES) | anti-influenza activity (in words, SAR discussion) [1] | EC50 ([1]; Influenza A virus, WSN) [nM] | also measured |
| --- | --- | --- | --- |
| CCC(C)(C)n1nnnc1C(NCc1cc2cc(C)c(C)cc2[nH]c1=O)C(C)C (stereo not shown) [Compound 23, 6,7-dimethyl-3-(((2-methyl-1-(1-(tert-pentyl)-1H-tetrazole-5-yl)propyl)amino)methyl)quinolin-2(1H)-one] | inactivation | > 100000 |  |
| Cc1cc2cc(CNCCO)c(=O)[nH]c2cc1C [Compound 6, 3-((2-hydroxyethylamino)methyl)-6,7-dimethylquinolin-2(1H)-one] | did not elicit any anti-influenza activity | > 100000 |  |
| CCC(C)(C)n1nnnc1C(C(C)C)N(Cc1cc2cc(C)c(C)cc2[nH]c1=O)CC1CCCO1 (stereo not shown) [Compound 25, 6,7-dimethyl-3-(((2-methyl-1-(1-(tert-pentyl)-1H-tetrazol-5-yl)propyl)((tetrahydrofuran-2-yl)methyl)amino)methyl)quinolin-2(1H)-one] | low micromolar range | ~3000 | EC50 [1]: 2950 nM |
| CCC(C)(C)n1nnnc1C(C(C)C)N(CCO)Cc1cc2cc(C)c(C)cc2[nH]c1=O (stereo not shown) [Compound 7, 3-(((2-hydroxyethyl)(2-methyl-1-(1-tert-pentyl-1H-tetrazole-5-yl)propyl)amino)methyl)-6,7-dimethylquinolin-2(1H)-one] |  | 45.6 | cytotoxicity profile [2]: good cytotoxicity profile; inhibition of selected kinases [3]: did not significantly inhibit; viral NP mRNA expression compared to DMSO treated controls [4]: reduction of the NP mRNA expression; viral replication (NP mRNA) after 26 hour incubation ([4]; 10 μM): minimal viral replication; activity against neuraminidase [5]: ineffective; viral NP mRNA expression levels [6]: reduced NP mRNA expression levels in a dose dependent matter; solubility [7]: 10 to 15 µM (≈ 4.41 to 6.61 µg/mL) |
| CCOC(=O)C1=C[C@@H](OC(CC)CC)[C@H](NC(C)=O)[C@@H](N)C1 [oseltamivir phosphate, reference compound] |  | ~0.5 | potency relative to best compounds of Table 1 [1]: roughly 100 fold |
| Cc1cc2cc(CNC(=O)c3ccccc3)c(=O)[nH]c2cc1C [Compound 24, N-((6,7-dimethyl-2-oxo-1,2-dihydroquinolin-3-yl)methyl)benzamide] | not sufficient | > 100000 |  |
